# According to US12459921B2, “Isoindoline compound, preparation method, pharmaceutical composition and use thereof” (SHANGHAI INSTITUTE OF MATERIA MEDICA, CHINESE ACADEMY OF …, priority 2018, dated 2025):
# Tested on: MM.1S cells
# Experiment: Inhibitory effect on the proliferation of MM.1S, MTS cell viability test
# Format: cell-based
# Conditions: Homo sapiens, MM1.S, 168 h, multiple myeloma MM.1S cells, 7 days incubation, read-out: Tumor cell inhibitory activity
# Protocol: Method of tumor cell proliferation inhibition test: the inventors tested all the example compounds on hematologic tumor cells, multiple myeloma MMTs cell line and acute leukemia cell MV-4-11 cell line of some examples. The activity test method and results are as follows.
# 1. The Compound's Inhibitory Effect on the Proliferation of MM.1S, MTS Cell Viability Test:
# MM.1S cells were cultured and collected with 1640 plus 10% fetal bovine serum. The cell concentration was diluted according to 7 days, and 180 ul cell suspension was added to each well of the 96-well cell plate to 20,000 cells. 20 ul of DMSO with a final concentration of 0.2% was added to the control wells. The compound was 5-fold diluted—from the 10 mM stock solution, and 20 ul was also added to each compound cell well (the final concentration of DMSO was 0.2%). The cells were placed in a 37° C., 5% CO2 incubator to incubate for 7 days. After the reaction solution was prepared according to the MTS kit (Promega, G5430), 20 μL was added to each well and incubated in a 37° C., 5% CO2 incubator for 3-4 h. Absorbance value at 490 nm was read with a microtiter plate, and 690 nm absorbance value was used as the background value. OD490-OD690 was used as the final initial data. The formula for calculating the inhibition rate of the compound is: inhibition rate=(ODDMSO-ODcompound)/(ODDMSO-Oblank)×100%. The compound's proliferation inhibition IC50 was fitted by Graph Pad Prism 5.0. The experiment was repeated three times, and the average and standard deviation was calculated according to the three parallel experiments.
# Cell viability test results: **** represents cell viability IC50>20 μM, […] represents cell viability 1 μM<IC50<20 μM, ** represents cell viability 100 nM<IC50<1 μM, * represents cell viability IC50<100 nM.
row,Structure (SMILES),IC50 [nM]
1,"O=C1CCC(N2Cc3c(CCCCN4CCN(c5ccc([N+](=O)[O-])cc5)CC4)cccc3C2=O)C(=O)N1 (stereo not drawn) [Example 42, 3-(4-(4-(4-(4-nitrophenyl)piperazine-1-)butyl)-1-oxoisoindoline-2-)piperidine-2,6-dione]",< 100
2,"Cc1cc(C)c(C2(C#N)CCN(CCCCCc3cccc4c3CN(C3CCC(=O)NC3=O)C4=O)CC2)c(C)c1 (stereo not drawn) [Example 262, 1-(5-(2-(2,6-dioxopiperidin-3-yl)-1-oxoisoindolin-4-yl)pentyl)-4-sym-trimethylphenylpiperidine-4-carbonitrile]",1000 to 20000
3,"N#CC1(c2ccc(Cl)cc2Cl)CCN(CCCCc2cccc3c2CN(C2CCC(=O)NC2=O)C3=O)CC1 (stereo not drawn) [Example 101, 4-(2,4-chlorophenyl)-1-(4-(2-(2,6-dioxopiperidine-3-)-1-oxoisoindoline-4-)butyl)piperidine-4-carbonitrile]",< 100
4,"N#CC1(c2ccc(OC(F)(F)F)cc2)CCN(CCCCc2cccc3c2CN(C2CCC(=O)NC2=O)C3=O)CC1 (stereo not drawn) [Example 99, 1-(4-(2-(2,6-dioxopiperidine-3-)-1-oxoisoindoline-4-)butyl)-4-(4-trifluoromethoxyphenyl)piperidine-4-carbonitrile]",< 100
5,"COc1ccc(C2(C#N)CCN(CCCCCc3cccc4c3CN(C3CCC(=O)NC3=O)C4=O)CC2)cc1OC (stereo not drawn) [Example 249, 4-(3,4-dimethoxyphenyl)-1-(5-(2-(2,6-dioxopiperidine-3-yl)-1-oxoisoindoline-4-yl)pentyl)piperidine-4-carbonitrile]",100 to 1000
6,"C[C@]1(N2C(=O)c3cccc(OCCCN4CCC(C#N)(c5ccccc5Cl)CC4)c3C2=O)CCC(=O)NC1=O [Example 50, (S)-4-(2-chlorophenyl)-1-(3-((2-(3-methyl-2,6-dioxopiperidine-3-)-1,3-dioxoisoindoline-4-)oxy)propyl)piperidine-4-carbonitrile]",1000 to 20000
7,"O=C1CCC(N2Cc3c(CCCCN4CCN(c5ccc(Cl)cc5)CC4)cccc3C2=O)C(=O)N1 (stereo not drawn) [Example 41, 3-(4-(4-(4-(4-chlorophenyl)piperazine-1-)butyl)-1-oxoisoindoline-2-)piperidine-2,6-dione]",< 100
8,"[2H]c1c([2H])c([2H])c(N2CCN(CCCCCCc3cccc4c3CN(C3CCC(=O)NC3=O)C4=O)CC2)c([2H])c1[2H] (stereo not drawn) [Example 209, 3-(1-oxo-4-(6-(4-(phenyl-d5)piperazine-1-)hexyl)isoindoline-2-)piperidine-2,6-dione]",< 100
9,"N#CC1(c2ccc(Cl)cc2)CCN(CCCCc2cccc3c2CN(C2CCC(=O)NC2=O)C3=O)CC1 (stereo not drawn) [Example 95, 4-(4-chlorophenyl)-1-(4-(2-(2,6-dioxopiperidine-3-)-1-oxoisoindoline-4-)butyl)piperidine-4-carbonitrile]",< 100
10,"CC(=O)N[C@@H](CCCc1cccc2c1CN(C1CCC(=O)NC1=O)C2=O)C(=O)N[C@@H](C)c1ccccc1 (stereo partly drawn) [Example 171, (2S)-2-acetylamino-5-(2-(2,6-dioxopiperidine-3-)-1-oxoisoindoline-4-)-N—((S)-1-phenethyl)pentanamide]",1000 to 20000
11,"COCCOc1ccc(C2(C#N)CCN(CCCCCc3cccc4c3CN(C3CCC(=O)NC3=O)C4=O)CC2)cc1 (stereo not drawn) [Example 264, 1-(5-(2-(2,6-dioxopiperidin-3-yl)-1-oxoisoindolin-4-yl)pentyl)-4-(4-(2-methoxyethoxy)phenyl)piperidine-4-carbonitrile]",100 to 1000
12,"O=C1CCC(N2Cc3c(CCCCCN4CCC5(CC4)OCc4ccc(F)cc45)cccc3C2=O)C(=O)N1 (stereo not drawn) [Example 156, 3-(4-(5-(6-fluoro-3H-spiro[isobenzofuran-1,4′-piperidine]-1′-)pentyl)-1-oxoisoindoline-2-)piperidine-2,6-dione]",< 100
13,"N#CC1(c2ccccc2F)CCN(CCCOc2cccc3c2CN(C2CCC(=O)NC2=O)C3=O)CC1 (stereo not drawn) [Example 61, 1-(3-((2-(2,6-dioxopiperidine-3-)-1-oxoisoindoline-4-)oxy)propyl)-4-(2-fluorophenyl)piperidine-4-carbonitrile]",100 to 1000
14,"CCc1cc(OCCCCOc2cccc3c2CN(C2CCC(=O)NC2=O)C3=O)c2ccccc2n1 (stereo not drawn) [Example 10, 3-(4-(4-((2-ethylquinoline-4-)oxy)butoxy)-1-oxoisoindoline-2-)piperidine-2,6-dione]",< 100
15,"O=C1CCC(N2Cc3c(CCCCCCOc4ccnc5ccccc45)cccc3C2=O)C(=O)N1 (stereo not drawn) [Example 3, 3-(1-oxo-4-(6-(quinoline-4-oxy)hexyl)isoindoline-2-)piperidine-2,6-dione]",< 100
16,"C[C@]1(N2Cc3c(OCCCN4CCC(C#N)(c5cccc(Cl)c5)CC4)cccc3C2=O)CCC(=O)NC1=O [Example 52, (S)-4-(3-chlorophenyl)-1-(3-((2-(3-methyl-2,6-dioxopiperidine-3-)-1-oxoisoindole-4-)oxy)propyl)piperidine-4-carbonitrile]",1000 to 20000
17,"O=C1CCC(N2Cc3c(CCCCN4CCN(c5ccc(F)cc5)CC4)cccc3C2=O)C(=O)N1 (stereo not drawn) [Example 39, 3-(4-(4-(4-(4-fluorophenyl)piperazine-1-)butyl)-1-oxoisoindoline-2-)piperidine-2,6-dione]",< 100
18,"O=C1CCC(N2Cc3c(CCCCCOc4ccnc5ccsc45)cccc3C2=O)C(=O)N1 (stereo not drawn) [Example 9, 3-(1-oxo-4-(5-(thieno[3,2-b]pyridine-7-oxy)pentyl)isoindoline-2-)piperidine-2,6-dione]",< 100
19,"COc1ccc(C2(C#N)CCN(CCCCCc3cccc4c3CN(C3CCC(=O)NC3=O)C4=O)CC2)c(OC)c1OC (stereo not drawn) [Example 254, 1-(5-(2-(2,6-dioxopiperidin-3-yl)-1-oxoisoindolin-4-yl)pentyl)-4-(2,3,4-trimethoxyphenyl)piperidine-4-carbonitrile]",1000 to 20000
20,"N#CC1(c2ccccc2Cl)CCN(CCCCCCc2cccc3c2CN(C2CCC(=O)NC2=O)C3=O)CC1 (stereo not drawn) [Example 98, 4-(2-chlorophenyl)-1-(6-(2-(2,6-dioxopiperidine-3-)-1-oxoisoindoline-4-)hexyl)piperidine-4-carbonitrile]",< 100
21,"N#CC1(c2cccc(OC(F)(F)F)c2)CCN(CCCCCc2cccc3c2CN(C2CCC(=O)NC2=O)C3=O)CC1 (stereo not drawn) [Example 94, 1-(5-(2-(2,6-dioxopiperidine-3-)-1-oxoisoindoline-4-)pentyl)-4-(3-trifluoromethoxyphenyl) piperidine-4-carbonitrile]",< 100
22,"N#CC1(c2cccc(OC(F)(F)F)c2)CCN(CCCCc2cccc3c2CN(C2CCC(=O)NC2=O)C3=O)CC1 (stereo not drawn) [Example 97, 1-(4-(2-(2,6-dioxopiperidine-3-)-1-oxoisoindoline-4-)butyl)-4-(3-trifluoromethoxyphenyl) piperidine-4-carbonitrile]",< 100
23,"N#CC1(c2ccc(O[C@H]3CCOC3)cc2)CCN(CCCCCc2cccc3c2CN(C2CCC(=O)NC2=O)C3=O)CC1 (stereo partly drawn) [Example 252, 1-(5-(2-(2,6-dioxopiperidin-3-yl)-1-oxoisoindolin-4-yl)pentyl)-4-(4-(((S)-tetrahydrofuran-3-yl)oxy)phenyl)piperidine-4-carbonitrile]",100 to 1000
24,"N#CC1(c2ccc(C(F)(F)F)cc2)CCN(CCCCCc2cccc3c2CN(C2CCC(=O)NC2=O)C3=O)CC1 (stereo not drawn) [Example 271, 1-(5-(2-(2,6-dioxopiperidin-3-yl)-1-oxoisoindolin-4-yl)pentyl)-4-(4-(trifluoromethyl)phenyl)piperidine-4-carbonitrile]",1000 to 20000
